In patent EP4596537A1, “NOVEL FLUORENE DERIVATIVE COMPOUND AND USE THEREOF” (JD Bioscience Inc., priority 2022, dated 2024):

Columns and labels:
[1] = tested on: KKAy diabetes mice; experiment: Intraperitoneal glucose tolerance test (IPGTT) in diabetes animal model; format: in vivo; conditions: 0.5 mg/kg once a day by oral gavage, 10 weeks; 1 g/kg glucose i.p.; vs vehicle group
Description: A vehicle (10% DMSO + 0.5% methylcellulose) and the compound of Example 1 (Compound 1) were administered to 6-week-old male KKAy diabetes mice (n = 6 per group) at a dose of 0.5 mg/kg once a day by oral gavage. At 10 weeks of administration, an intraperitoneal glucose tolerance test (IPGTT) was performed by intraperitoneally administering 1 g/kg of glucose, and the results are shown in FIG. 1.

[2] = tested on: Mfn2^-/^- MEF cells; experiment: Mitochondrial oxygen consumption rate (Seahorse), Charcot-Marie-Tooth disease model; format: cell-based, mouse; conditions: 1 µM, 24 hours
Description: To verify the functional loss due to mutation of MFN2 present in the outer mitochondrial membrane, which is the main cause of Charcot-Marie-Tooth disease, the mitochondrial oxygen consumption rate (OCR) was measured. In detail, Mfn2^+/^+ MEF cells (normal cells), which are mouse embryonic fibroblasts expressing Mfn2, and Mfn2^-/^- MEF cells not expressing Mfn2 were cultured at a density of 1 × 10^4 for 24 hours in a Seahorse XF24 culture dish using a DMEM medium supplemented with 10% FBS and penicillin/streptomycin. The cells were treated with DMSO as a vehicle and Compound 1 (1 µM) and cultured for another 24 hours. The mitochondrial oxygen consumption rate was measured using a […] (Agilent Technologies), and the results are shown in FIG. 13.

[3] = tested on: bone marrow-derived dendritic cells (BMDCs); experiment: Inflammasome formation (IL-1β ELISA) in LPS/ATP-treated dendritic cells; format: cell-based, C57BL6 mice; conditions: for IL-1β: LPS 500 ng/mL + 5 mM ATP, supernatant; for inhibited IL-1β expression: compared to vehicle control group
Description: Furthermore, to verify the anti-inflammatory effect at a cellular level, bone marrow cells of C57BL6 mice were treated with 20 ng/mL of GM-CSF and IL-4, and 6 days later, bone marrow-derived dendritic cells (BMDCs) were collected. The BMDCs were prepared at 1×10^6 cells/mL and stabilized for one day, and then subsequent experiments were conducted. The above dendritic cells were treated with 500 ng/mL of LPS for 3 hours to prime pro-IL1 β, and then treated with Compound 1 (0 µM, 0.01 µM, 0.1 µM, 1 µM, and 10 µM) for 15 minutes. Next, 5 mM of ATP was treated, which induces inflammasome formation by converting pro-IL1β to IL-1β through pro-IL1β cleavage, and 30 minutes later, the concentration of IL-1β in the supernatant was measured by ELISA, and the results are shown in FIG. 10 and Table 3.

[4] = tested on: mice; experiment: Acute pancreatitis animal model (cerulein-induced); format: in vivo; conditions: 5 µg/kg or 10 µg/kg tail vein; dose-dependent
Description: Acute pancreatitis was induced by intraperitoneal administration of cerulein (50 µg/kg) dissolved in saline to 8-week-old male mice. Compound 1 was administered at a concentration of 5 µg/kg or 10 µg/kg into the tail vein 24 hours and 1 hour before cerulein administration, and cerulein was intraperitoneally administered six times at 1-hour intervals. 18 hours after the first cerulein administration, the mice were anesthetized, the serum was separated, and the amylase and lipase activities in the serum were measured, which are shown in FIG. 8.

[5] = tested on: PDHE1α S293; experiment: In vitro PDH S293 phosphorylation inhibition (Western blot) in HEK293 cells; format: cell-based, human; conditions: Homo sapiens, 5 hours
Description: HEK293 cells, which are human embryonic kidney cells, were seeded at a density of 2 × 10^6 in a 60 mm dish, and cultured for 24 hours. After replacing the medium with a medium comprising 0.5% FBS, the compounds prepared according to Examples 1 to 54 were treated at various concentrations. 5 hours later, the cells were scraped off and collected into a 15 mL conical tube and centrifuged at 1500 rpm for 10 minutes. The supernatant was discarded, the resultant was washed with 1× PBS, and transferred to a 1.5 mL e-tube, followed by centrifugation at 10,000 rpm for 5 minutes. The supernatant was discarded again, a lysis buffer was added, and the cells were lysed on ice for 30 minutes. The cells were vortexed every 10 minutes to completely lyse, and centrifuged again at 10,000 rpm for 15 minutes at 4°C, and the supernatant was collected. The protein in the supernatant was quantified using BCA technique, and the sample buffer was added to 20 µg of protein and allowed to react at 70°C for 5 minutes. The expression of PDHE1α S232, S293, S300, and total PDHE1α proteins was detected by Western blot, and the resulting PDH S293 phosphorylation inhibition is shown in Table 6. […]

[6] = tested on: HCT-116 colorectal cancer cell line; experiment: Anticancer efficacy in HCT-116 colorectal cancer tumor model; format: in vivo, nude mice; conditions: for reduced tumor growth (tumor volume) compared to vehicle: 21 times, day 24
Description: A colorectal cancer model was established by subcutaneously transplanting HCT-116 colorectal cancer cell line into nude mice. The colorectal cancer model was divided into the following three groups: Group 1 was administered a vehicle as a control group, Group 2 was administered 0.5 mg/kg of Compound 1, and Group 3 was administered 1.0 mg/kg of Compound 1. The drug was orally administered once a day for a total of 21 times. To evaluate the therapeutic efficacy, the tumor size was measured before drug administration and on days 3, 7, 10, 14, 17, 21, and 24 after drug administration. The tumor size was calculated as follows: Tumor size (mm^3) = (A×B^2)/2 [formula] wherein A and B represent the tumor long axis and short axis, respectively.
In addition, the body weight was measured before drug administration and on days 7, 14, and 21 after drug administration.

[7] = tested on: CT26 colorectal cancer cell line; experiment: Anticancer efficacy in CT26 colorectal cancer tumor model; format: in vivo, nude mice; conditions: 1.0 mg/kg
Description: A colorectal cancer model was established by subcutaneously transplanting CT26 colorectal cancer cell line into nude mice. The colorectal cancer model was divided into two groups: vehicle administration group and Compound 1 administration group. […] Similar to Experimental Example 13, tumor size was calculated before drug administration and on days 3, 7, 10, 14, 18, 22, and 24 after drug administration, and body weight was measured before drug administration and on days 7, 14 and 22 after drug administration, which are shown in FIG. 22.
Additionally, tumors were extracted from the colorectal cancer model, fixed with 4% PFA solution, and subjected to TUNEL assay to determine the degree of apoptosis induction, and the results are shown in FIG. 22. As shown in the middle of FIG. 22, 28% apoptosis was induced in the vehicle administration group, and 72% apoptosis was induced in the 1.0 mg/kg compound 1 administration group, and statistical significance between these values was also verified (*p<0.01 versus the vehicle administration group).

Q: With CC(C(=O)NNc1ccc(F)cc1)n1cc(-c2cc(F)cc3c2-c2ccccc2C3(O)C(F)(F)F)cn1 (centres unmarked) [Example 1, 2-(4-(2-fluoro-9-hydroxy-9-(trifluoromethyl)-9H-fluoren-4-yl)-1H-pyrazol-1-yl)-N'-(4-fluorophenyl)propanehydrazide] as the compound, how does the “blood glucose increase (IPGTT)” value [1] read?
A: Its value is “significantly suppressed”.

Q: And the “mitochondrial oxygen consumption rate (OCR)” value [2]?
A: The value was “markedly restored to a level comparable to that of normal cells”.

Q: What about the “IL-1β” value ([3]; 0.01 µM) of the same compound?
A: Its value is 1131.823 pg/mL.

Q: And the “IL-1β” value ([3]; 0.1 µM)?
A: Its value is 1009.825 pg/mL.

Q: And the “inhibited IL-1β expression” value ([3]; 0.1 µM)?
A: Its value is “about 83.802%”.

Q: What about the “IL-1β” value ([3]; 1 µM) of the same compound?
A: The value was 907.2636 pg/mL.

Q: And the “IL-1β” value ([3]; 10 µM)?
A: The value was 647.6982 pg/mL.

Q: And the “inhibited IL-1β expression” value ([3]; 10 µM)?
A: Its value is “about 53.7504%”.

Q: What about the serum amylase activity [4] of the same compound?
A: The serum amylase activity was “decreased”.

Q: What about the serum lipase activity [4] of the same compound?
A: Its serum lipase activity is “decreased”.

Q: And the inhibition at 1 µM [5]?
A: Its inhibition at 1 µM is ≥ 80%.

Q: And the body weight change ([6]; 0.5 mg/kg and 1.0 mg/kg oral, days 7, 14, 21)?
A: Its body weight change is “no significant body weight change”.

Q: And the “reduced tumor growth (tumor volume) compared to vehicle” value ([6]; 0.5 mg/kg oral once a day)?
A: Its value is 41%.

Q: And the “reduced tumor growth (tumor volume) compared to vehicle” value ([6]; 1.0 mg/kg oral once a day)?
A: The value was 49%.

Q: And the “decrease in tumor growth (tumor volume) compared to vehicle” value ([7]; day 24)?
A: Its value is 55%.

Q: And the “change in the body weight” value ([7]; days 7, 14, 22)?
A: The value was “Neither the vehicle administration group nor the compound 1 administration group showed any change in the body weight”.

Q: What about the “apoptosis induced in tumor (TUNEL assay)” value ([7]; vehicle group 28%) of the same compound?
A: Its value is 72%.
